Data on eight molecules can be found in patent publication US5789444A, “Method of reducing glutamate neurotoxicity with anthranilic acid derivatives” (Washington University, priority 1996, dated 1998).

Entries after “also recorded” stand apart in the source; their conditions may differ.

Assay [1] concerns NMDA-induced neurotoxicity, mouse cortical cultures. Kind of assay: NMDA-mediated excitotoxicity in mixed cortical cultures (neuronal injury by LDH release). It is filed as cell-based. The protocol: (§1) Cell Culture: Mixed cortical cultures containing both neuronal and glial elements were prepared from fetal mice at 15 day gestation as previously described (Hewett et al., 1993). Glia were plated in Primaria (Falcon) 15 mm multiwell vessels in modified Eagle's medium (MEM, Earle's salts), with 2 mM glutamine, 25 mM glucose, 10% fetal bovine serum, 10% horse serum, and 10 ng/ml epidermal growth factor. Dissociated cortical cells were plated (2.75 hemispheres/10 ml/plate) in a similar medium (with only 5% fetal bovine serum and 5% horse serum) on an established bed of glia (15-30 days in vitro). All cultures were kept at 37° C. in a humidified 5% CO2 -containing atmosphere. After 3-7 days in vitro, glial cell division was halted by 2 days of exposure to 10 μM cytosine arabinoside. Cells were subsequently shifted into maintenance medium which was identical to the plating medium, but lacked fetal bovine serum. The medium was changed twice weekly. Experiments were performed on cortical cultures after 14 days in vitro.
Drug Exposure: Cells were exposed to NMDA for 5 min either alone or in the presence of test compound at room temperature in a HEPES controlled salt solution (HCSS), containing (mM): NaCl, 120; KCl, 5.4; MgCl2, 0.8; CaCl2, 1.8; HEPES, 20; glucose, 15, and glycine, 0.01 (pH 7.4). The exposure solution was then washed away and replaced by MEM (Earle's salts) supplemented with glycine (0.01 mM) and the cells returned to the incubator for 20-24 hr.
Since the neurotoxicity of NMDA preparations can vary from lot to lot, the concentration of NMDA used was determined empirically in a separate benchmarking test. Cells were exposed as described above to increasing concentrations of NMDA, and neuronal injury is assessed as described below. A dose/response curve is plotted, and a concentration which induces death in 50-70% of the neuronal population after 24 hours is used as the test concentration for evaluating compounds as neuroprotective drugs.
Assessment of Neuronal Cell Injury: Neuronal cell death was estimated by examination of cultures under phase-contrast microscopy, and quantified by measurement of lactate dehydrogenase (LDH) released by damaged or destroyed cells into the bathing medium one day following experimentation (Koh, J. Y. and Choi, D. W., 1987). The LDH signal corresponding to near-complete neuronal death was determined by assaying the supernatant of sister cultures which were exposed to 500 μM NMDA for 24 hr in MEM supplemented with 10 μM glycine. Background LDH levels (generally <15% of total neuronal) were determined in sister cultures subjected to sham wash and subtracted from the levels in experimental conditions to yield the LDH signal specific to experimental injury.
Mouse cortical cultures were exposed for 5 min to NMDA (100 μM) alone or in the presence of increasing concentrations of meclofenamate sodium, as described under Experimental Procedures, above. Values represent the mean LDH±SEM (n=5-7) scaled to the mean LDH found in control injury (=100).
Mouse cortical cultures were exposed, as described in Example 1, for 5 min to solutions containing increasing concentrations of NMDA or NMDA plus 300 μM meclofenamate. LDH activity was assessed 20-24 hr later. Data are expressed as the percentage of total LDH released (mean ±SEM; n=10). Total LDH was determined by assaying the supernatant of sister cultures which were incubated with 500 μM NMDA for 24 hr. An asterisk indicates difference form untreated controls as determined by repeated measures Analysis of Variance ("ANOVA") followed by Bonferroni's t-test for multiple comparisons (p<0.01).
Cells were exposed to NMDA (100-200 μM) (as described previously) both in the presence and absence of cyclooxygenase/lipooxygenase inhibitors. Data represents the mean LDH±SEM scaled to the mean LDH found in control injury (NMDA alone=100). Data were analyzed via ANOVA followed by Dunnett's t-test for multiple comparisons.

Another assay deals with NMDA receptor. Kind of assay: Whole-cell recording of NMDA current in cortical neurons. Type of assay: cell-based, mouse. The protocol: Electrophysiological Recording: NMDA current was recorded at room temperature (25° C.) from DIV 12-20 cortical neurons plated on 35 mm dishes using whole-cell recording (EPC-7, List-Electronic, Germany) under voltage clamp. The data acquisition program, PULSE (HEKA Electronic, Germany), was used to control the voltage clamp, to monitor and to collect current and voltage data on a Macintosh computer (Quatra 950, Apple Computer Corp., USA). The extracellular solution contained (mM): NaCl, 145; KCl, 3; MnCl2, 2; CaCl2, 2; glycine, 0.01; HEPES, 10; TTX, 0.005 and glucose, 5. The recording electrode's internal solution contained (mM) CsCl, 150, ATP-Na, 2, BAPTA, 0.5 and HEPES, 10. All solutions were adjusted to pH 7.3 by Tris buffer. NMDA (100 μM) in the extracellular solution was delivered to the cell by a multi-channel DAD drug delivery system (Adams and List Inc., New York.) To eliminate dilution of drug, meclofenamate was added to the bath medium and NMDA was delivered in an extracellular solution containing the same concentration of drug.
Ten min prior to NMDA (100 μM) application, mouse cortical cells were treated with 300 μM meclofenamate. NMDA current was recorded using whole cell recording techniques. To eliminate dilution of drug, NMDA was delivered to the cell in a solution containing the same concentration of drug as that in the bath.

In the next assay the test system is lipid catabolism. To be noted: known; cited from earlier work.
Assay [2] relates to cyclooxygenase and lipoxygenase metabolites. Kind of assay: RIA measurements of lipid breakdown products following NMDA exposure. It is filed as cell-based. Conditions: data not shown.
Assay [3] relates to NMDA-induced 45Ca2+ influx. Kind of assay: 45Ca2+ accumulation during NMDA exposure in cortical cultures. Type of assay: cell-based, mouse. Conditions: NMDA 300 μM, 5 min, increasing concentrations, n=18, FIG. 4. As for the experimental part:
^45 Ca^2 + accumulation: Mouse cortical cultures were washed with HCSS and then exposed to NMDA (300 μM) alone or in the presence of increasing concentrations of meclofenamate in HCSS containing a trace amount of ^45 Ca^2+ (0.5 μCi/well; NEN, Boston, Mass.). After 5 min the exposure solution was washed out with four rinses of HCSS (750 μl each) and the cells were lysed by addition of 0.2% sodium dodecyl sulfate (SDS) at 37° C. An aliquot of cell lysate was estimated by β-counting.
Mouse cortical cultures were exposed, as in Example 1, for 5 min to NMDA (300 μM) alone or NMDA plus increasing concentrations of meclofenamate in the presence of extracellular ^45 Ca^2+. Values are expressed as mean ±SEM (n=18).

Assay [4] concerns voltage-gated calcium channels. Kind of assay: KCl-stimulated influx of calcium (fura-2 fluorescence videomicroscopy). It is filed as cell-based, mouse. Conditions: meclofenamate 300 μM, 60 mM KCl, 5 min; FIG. 5. As for the experimental part: as §1, with “The medium was changed twice weekly. Experiments were performed on cortical cultures after 14 days in vitro.” left out
Cytosolic Calcium Measurements: Intracellular free calcium was measured using fura-2 fluorescence videomicroscopy. […] Background fluorescence was measured from a cell free region of the coverslip at the end of each experiment and subtracted from each 340 and 380 image. […]
Cells were exposed for 5 minutes, as in Example 1, to 60 mM KCl in the presence and absence of meclofenamate (300 μM). Intracellular free calcium [Ca^2 +]i was measured using fura-2 fluorescence videomicroscopy.

The subject of assay [5] is lipoxygenase/cyclooxygenase. To be noted: conclusion of prior studies; cited from earlier work.
Assay [6] concerns focal cerebral ischemia, Long Evans male rats. Kind of assay: Induced focal cerebral ischemia (MCAO) with reperfusion, cortical infarct volume. Type of assay: in vivo, rat. As for the experimental part: Surgical MCAO occlusion: Focal cerebral ischemia, confined to the cerebral cortex in the right middle cerebral artery territory (MCA) of Long Evans male rats (250-350 g; Charles Rivers, Wilmington, Del.), was induced by temporary ligation of the MCA and both common carotid arteries (CCAs) as described by Chen et al., 1986. The rectal temperature was monitored and maintained at 37.0°±0.5° C. via an electronic temperature controller (Versa-Therm 2156, Cole-Parmer, Chicago, Ill.) linked to a heating lamp. Physiological parameters including plasma blood glucose, arterial blood pressure, and pulse rate were monitored as described previously and maintained within normal range (Liu et al, 1989). Reperfusion was initiated by releasing arterial occlusion affecting all 3 vessels after 90 min of ischemia. Restoration of blood flow in all three arteries was observed directly under the microscope. Rats were treated i.p. with vehicle (control) or meclofenamate (10 mg/kg, i.p.) 15 min before ischemia.. The cortical infarct volume was morphometrically measured after triphenyl tetrazolium chloride stain 24 hr after MCAO.
31 rats underwent middle cerebral artery occlusion (MCAO) followed by reperfusion. Fourteen rats underwent MCAO alone while 17 rats were given intraperitoneal meclofenamate (10 mg/kg) 15 minutes prior to 90 min MCAO.

Where [7] appears, read: Mus musculus, compound 300 μM, NMDA 100-200 μM, mean LDH±SEM, asterisk = significantly different from control, read-out: LDH, % of control (NMDA alone=100).

Regarding `CCCCCC#CCC#CCC#CCC#CCCCC(=O)O` [ETYA], the activity at 300 µM in assay [1] (setting [7]) turned out to be 85.1 ± 6.2%.

As to `CC(C)Cc1ccc(C(C)C(=O)O)cc1` (stereo not drawn) [ibuprofen], the activity at 100 µM in assay [1] (Mus musculus, compound 100 μM, NMDA 100-200 μM, mean LDH±SEM, asterisk = significantly different from control, read-out: LDH, % of control (NMDA alone=100)) worked out at 65.4 ± 3.5%.

Take `Cc1ccc(Cl)c(Nc2ccccc2C(=O)O)c1Cl` [Meclofenamate]: the activity at 300 µM in assay [1] (setting [7]) was 10.8 ± 5.1%. The “neuronal injury (LDH release)” value in assay [1] (given at the same time as NMDA (100 μM, 5 min), increasing concentrations, FIG. 1) is given as “dose-dependently decreased neuronal injury”. Moreover, in assay [1] (in vitro, summary in words, listed as meclofenamate sodium), the “protective effect against NMDA receptor-mediated neurotoxicity” value is “powerful protective effect; also recorded: neuroprotective”. The “neuroprotection over a full concentration-toxicity curve for NMDA” value in assay [1] (meclofenamate 300 μM, FIG. 2) is “Complete neuroprotection”. For the same molecule, the NMDA current entry with NMDA receptor (300 μM, 10 min prior to NMDA (100 μM), whole-cell, FIG. 3) was “failed to alter the current elicited by application of NMDA”. Moreover, in the assay on NMDA receptor (electrophysiological and radiotracer flux measurements), the NMDA receptor antagonism entry was “not an NMDA receptor antagonist”. Moreover, the “inhibition of lipid catabolism” value in the assay on lipid catabolism is “inhibitor of lipid catabolism”. In assay [2], the “formation of cyclooxygenase and lipoxygenase metabolites” value was “able to block formation of both cyclooxygenase and lipoxygenase metabolites”. The “NMDA-induced 45Ca2+ influx / uptake” value in assay [3] is given as “did not significantly affect uptake at any concentration tested”; in assay [3] (listed as meclofenamate), “not significantly altered”. Besides, in assay [4], the “elevation of intracellular calcium produced by KCl stimulation” value was “no effect on the elevation of intracellular calcium produced by KCl stimulation”. For the same molecule, the lipoxygenase/cyclooxygenase inhibition result in assay [5] is reported as “dual lipoxygenase/cyclooxygenase inhibitor”. The molecule further came in with a cortical infarct volume in assay [6] (10 mg/kg i.p. 15 min prior to 90 min MCAO, 24 hr, control 144.8±8.8, p<0.002) of 99.2±9.2 mm^3. Moreover, the “neuroprotection in animal model of cerebral ischemia” value in assay [6] (in vivo, summary in words) is reported as “neuroprotective”.

Regarding `COc1ccc2cc([C@H](C)C(=O)O)ccc2c1` [naproxen], the activity at 300 µM in assay [1] (setting [7]) is 82.5 ± 7.1%.

Consider `CCCCCCCCC#CCC#CCC#CCCCC(=O)O` [ETI], for which, in assay [1] (compound 300 μM, NMDA 100-200 μM, mean LDH±SEM, asterisk = significantly different from control), the “LDH, % of control (NMDA alone=100)” value is 107 ± 13.0%.

As to `O=c1ccc2cc(O)c(O)cc2o1` [Esculetin], the activity at 300 µM in assay [1] (setting [7]) stood at 117 ± 17.1%.

`O=C1CCN(c2ccccc2)N1` [Phenidone]: the activity at 300 µM in assay [1] (setting [7]) amounted to 58.1 ± 6.7%.

For the molecule `CC(Cc1ccc(O)c(O)c1)C(C)Cc1ccc(O)c(O)c1` (stereo not drawn) [NDGA], the activity at 30 µM in assay [1] (Mus musculus, compound 30 μM, NMDA 100-200 μM, mean LDH±SEM, read-out: LDH, % of control (NMDA alone=100)) amounted to 101 ± 11%.
